From the supplement of paper PMC8633005

Experiments:
Test in all cases: drug sensitivity score (DSS) (DSS (unitless, 0-50 scale)); higher = more sensitive (stronger viability inhibition); extreme values may be limits of the assay
Details in all cases: 72 h; culture: 2D
Bowes = test system: Bowes
Outline: (§1)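 Viability was measured by CellTiter-Glo luminescence after 72 h at 37 °C in 384-well plates holding a 527-compound oncology library, with patient-derived melanoma cultures (1000–1500 cells per well) and melanoma cell lines grown in 2D. Every compound was tested at five concentrations spanning a 10,000-fold range. The drug sensitivity score, a modified area under the curve, came from dose-response curves fitted with in-house Breeze software.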

FM-MEL-2 = test system: FM-MEL-2
Outline: as §1

FM-MEL-3 = test system: FM-MEL-3
Outline: as §1

FM-MEL-6 = test system: FM-MEL-6
Outline: as §1

SK-MEL-28 = test system: SK-MEL-28
Outline: as §1

SK-MEL-2 = test system: SK-MEL-2
Outline: as §1

WM165 = test system: WM165
Outline: as §1

WM852 = test system: WM852
Outline: as §1

SMILES	drug sensitivity score (Bowes)	drug sensitivity score (FM-MEL-2)	drug sensitivity score (FM-MEL-3)	drug sensitivity score (FM-MEL-6)	drug sensitivity score (SK-MEL-28)	drug sensitivity score (SK-MEL-2)	drug sensitivity score (WM165)	drug sensitivity score (WM852)
CN1CCN(c2cc(C(=O)Nc3ccc4c(c3)-c3c(c(C(N)=O)nn3-c3ccc(F)cc3)CC4)c(Cl)cn2)CC1 [PHA 408]	0.5	5.7	1.1	5.2	0.1	4.2	3.4	5.3
O=C(Nc1cc(Cl)cc2c1[nH]c1cnccc12)c1cccnc1 [PS-1145]	0	0	0.7	0	0	0	0	1.3
COc1cc(Br)c(Nc2nc(-c3c(C)nc4ncccn34)cs2)c(Br)c1 [PTC-209]	13.7	5.1	11.2	5	4.6	4.2	12.4	7.6
CC(=O)O[C@H]1C(=O)[C@@]2(C)[C@H]([C@H](OC(=O)c3ccccc3)[C@]3(O)C[C@H](OC(=O)[C@H](O)[C@@H](NC(=O)c4ccccc4)c4ccccc4)C(C)=C1C3(C)C)[C@]1(OC(C)=O)CO[C@@H]1C[C@@H]2O [Paclitaxel]	23.3	5.3	11.9	13.7	11.5	16.5	22.2	20.5
C1=N/C2=N/c3ccc(OCCN4CCCC4)c(c3)COC/C=C/COCc3cccc(c3)C(=C1)N2 [Pacritinib]	16.8	9.8	9.5	7.7	9.8	5.4	9.8	9.1
CC(=O)c1c(C)c2cnc(Nc3ccc(N4CCNCC4)cn3)nc2n(C2CCCC2)c1=O [Palbociclib]	4.6	3.8	2.3	4.2	6.3	0.7	5.8	3.1
COc1ccc(COc2cc3oc(=O)c4cc(C(C)O)ccc4c3cc2OC)cc1 (centres undefined) [Palomid-529]	0	0.1	0.7	0.1	0	0	0	0
Cc1[nH]c2ccccc2c1CCNCc1ccc(/C=C/C(=O)NO)cc1 [Panobinostat]	10.1	16.2	14.9	12.1	12.9	16.8	19.6	9.3
Cc1ccc(Nc2nccc(N(C)c3ccc4c(C)n(C)nc4c3)n2)cc1S(N)(=O)=O [Pazopanib]	2.8	0	0	0.4	0	0	0	2.1
Nc1nc2[nH]cc(CCc3ccc(C(=O)N[C@@H](CCC(=O)O)C(=O)O)cc3)c2c(=O)[nH]1 [Pemetrexed]	24.5	0.6	0	0.1	6.6	0	7.4	0
OC[C@H]1O[C@@H](n2cnc3c2N=CNC[C@H]3O)C[C@@H]1O [Pentostatin]	0	0	1.8	0	0	0	0	0
CCCCCCCCCCCCCCCCCCOP(=O)([O-])OC1CC[N+](C)(C)CC1 [Perifosine]	0	0.2	0.4	0	0	0	0	0
NS(=O)(=O)OC[C@@H]1C[C@@H](n2ccc3c(N[C@H]4CCc5ccccc54)ncnc32)C[C@@H]1O [Pevonedistat]	10.9	6.2	12.4	7.8	7	11.7	20	11.7
FC(F)(F)c1ccc(CNc2ccc(Cc3c[nH]c4ncc(Cl)cc34)cn2)cn1 [Pexidartinib]	0.2	1	3	1.1	0.4	0	2.4	4.5
CS(=O)(=O)N1CCN(Cc2cc3nc(-c4cccc5[nH]ncc45)nc(N4CCOCC4)c3s2)CC1 [Pictilisib]	8.4	12.7	8.8	7.4	9.6	3.2	8.4	6.5
CC[C@@H]1C(=O)OC[C@@H]1Cc1cncn1C [Pilocarpine]	0	0	1.5	0	0	0	0	0
CC(C)N(C[C@H]1O[C@@H](n2cnc3c(N)ncnc32)[C@H](O)[C@@H]1O)[C@H]1C[C@@H](CCc2nc3cc(C(C)(C)C)ccc3[nH]2)C1 [Pinometostat]	0	0	0	0	0	0	0	0

SMILES	drug sensitivity score (Bowes)	drug sensitivity score (FM-MEL-2)	drug sensitivity score (FM-MEL-3)	drug sensitivity score (FM-MEL-6)	drug sensitivity score (SK-MEL-28)	drug sensitivity score (SK-MEL-2)	drug sensitivity score (WM165)	drug sensitivity score (WM852)
Cc1ccc(=O)n(-c2ccccc2)c1 [Pirfenidone]	0	0	0	0	0	0	0	0
NCCNc1ccc(NCCN)c2c1C(=O)c1ccncc1C2=O [Pixantrone]	4.8	0	0	0.8	0	0	0.7	1.3
c1cc(CN2CCCNCCNCCCNCC2)ccc1CN1CCCNCCNCCCNCC1 [Plerixafor]	0	0	0	0	0	0	0	0
CO[C@H](C(=O)[C@@H](O)[C@@H](C)O)[C@@H]1Cc2cc3cc(O[C@H]4C[C@@H](O[C@@H]5C[C@@H](O)[C@H](O)[C@@H](C)O5)[C@H](O)[C@@H](C)O4)c(C)c(O)c3c(O)c2C(=O)[C@H]1O[C@H]1C[C@@H](O[C@@H]2C[C@@H](O)[C@@H](O[C@@H]3C[C@](C)(O)[C@H](O)[C@@H](C)O3)[C@@H](C)O2)[C@H](O)[C@@H](C)O1 [Plicamycin]	26.4	12.7	21.3	7.4	8.6	16.8	15.7	3.2
Nc1cccc2c1C(=O)N(C1CCC(=O)NC1=O)C2=O (centres undefined) [Pomalidomide]	0	0	0	0	0	0	0	0
Cc1ccc(C(=O)Nc2ccc(CN3CCN(C)CC3)c(C(F)(F)F)c2)cc1C#Cc1cnc2cccnn12 [Ponatinib]	9.1	7.8	9.1	4.5	4.9	4.4	8.3	6.2
C=CC(=O)N1CCC(Oc2cc3c(Nc4ccc(Cl)c(Cl)c4F)ncnc3cc2OC)CC1 [Poziotinib]	2.2	0	0	0	0	0	0	0
CCCCc1nc2cc(/C=C/C(=O)NO)ccc2n1CCN(CC)CC [Pracinostat]	9.2	14.5	13.3	14	12.9	14	16.8	9.1
CC[C@H](C)C(=O)O[C@H]1C[C@H](O)C=C2C=C[C@H](C)[C@H](CC[C@@H](O)C[C@@H](O)CC(=O)O)[C@H]21 [Pravastatin]	0	0.8	0	0	0	0	0	0
C[C@]12C=CC(=O)C=C1CC[C@@H]1[C@@H]2[C@@H](O)C[C@@]2(C)[C@H]1CC[C@]2(O)C(=O)CO [Prednisolone]	0	0.3	2.8	0	0	0	0	0
Cn1cc(CNCC2CCN(c3ncc(C(=O)NO)cn3)CC2)c2ccccc21 [Quisinostat]	9	13.4	11.3	10.6	10.7	13.5	16.3	5.7
Nc1cc(F)ccc1NC(=O)/C=C/c1cnn(C/C=C/c2ccccc2)c1 [RGFP966]	1.6	0	0.5	1.9	0	0	0	0
COC(=O)c1ccc([C@H]2c3[nH]c4ccccc4c3C[C@H](C(=O)OC)N2C(=O)CCl)cc1 [RSL3]	0	0	0	0	0	0	0	0
Cc1cnc(NC(=O)Nc2cc(Br)c(C)cc2OC[C@@H]2CNCCO2)cn1 [Rabusertib]	0.9	0	1.5	0	0	0	0	2.4
Cc1cn(-c2cc(NC(=O)c3ccc(C)c(Nc4nccc(-c5cnccn5)n4)c3)cc(C(F)(F)F)c2)cn1 [Radotinib]	0	5	8.6	2.6	0	0	0	0
CC(C)(C)Cn1c(N)nc2ccc(-c3[nH]c(C(C)(C)C)nc3-c3ccc(F)cc3)nc21 [Ralimetinib]	0	5.4	6.1	0	2	0	2.9	1
